Measurements taken from paper PMC12175177 (Frontiers in Pharmacology, 2025).
Where two headings read alike, the source gives them in different places.

Experiments:
Assay type in all cases: cell-based
SARS-CoV-2 A2.5 variant [1] = assay: microbe, parasite or virus in culture
[2] = tested on: SARS-CoV-2 A2.5 variant (M2169)
SARS-CoV-2 Delta variant [3] = tested on: SARS-CoV-2 Delta variant
SARS-CoV-2 Delta variant [4] = tested on: SARS-CoV-2 Delta variant; remark: listed apart in the source
SARS-CoV-2 A2.5 variant [5] = tested on: SARS-CoV-2 A2.5 variant
[6] = tested on: SARS-CoV-2 Delta variant (SEQ203); settings: for % inhibition Vero E6 Delta MOI 0.0001: 1x
[7] = Severe acute respiratory syndrome coronavirus 2, Vero C1008, 72 h, read-out: IC50%
[8] = Severe acute respiratory syndrome coronavirus 2, Vero C1008, 72 h, read-out: IC50% in µg/mL
[9] = Severe acute respiratory syndrome coronavirus 2, Vero C1008, read-out: IC50 (Figure 4 curve)
[10] = Severe acute respiratory syndrome coronavirus 2, Vero C1008, read-out: IC90%
[11] = Severe acute respiratory syndrome coronavirus 2, Vero C1008, read-out: IC90% in µg/mL

Row | SMILES | IC50 (SARS-CoV-2 A2.5 variant [1]; [7]) | IC50 (SARS-CoV-2 A2.5 variant [1]; [8]) | IC50 (SARS-CoV-2 A2.5 variant [1]; [9]) | IC90 (SARS-CoV-2 A2.5 variant [1]; [10]) | IC90 (SARS-CoV-2 A2.5 variant [1]; [11]) | inhibition of A.2.5 infection in Calu-3 compared to camostat (CAM) ([2]; Calu-3) | antiviral effect, treatment 1 hour post-infection, Delta (SARS-CoV-2 Delta variant [3]) | effect on viral replication, treatment 1 hour pre-infection, Delta (SARS-CoV-2 Delta variant [3]) | period of most of the inhibitory effect, Delta (SARS-CoV-2 Delta variant [4]) | less susceptible to CQ than to PQ, Delta (SARS-CoV-2 Delta variant [4]; Vero-E6, same time interval) | period of most of the inhibitory effect, A2.5 (SARS-CoV-2 A2.5 variant [5]) | less susceptible to CQ than to PQ, A2.5 (SARS-CoV-2 A2.5 variant [5]; Vero-E6, same time interval) | antiviral inhibition at MOI = 0.00001 [6] | less potent against the Delta compared to the A2.5 variant [6] | % inhibition Vero E6 Delta MOI 0.0001 ([6]; at MNCC, […], 48 h) | % inhibition Calu-3 A2.5 MOI 0.01 ([2]; at MNCC, […], 48 h, mean 2x) | effect on viral load, time of addition, Delta (SARS-CoV-2 Delta variant [4]) | effect on viral load, time of addition, A2.5 (SARS-CoV-2 A2.5 variant [5]) | % inhibition Vero E6 Delta MOI 0.01 ([6]; at MNCC, […], 48 h, mean 2x)
1 | CCN(CC)CCCC(C)Nc1ccnc2cc(Cl)ccc12 (centres unmarked) [Chloroquine diphosphate (CQ), Chloroquine diphosphate] | 6.3 µM | 2 µg/mL | 6.27 µM | 56.7 µM | 18.1 µg/mL | two-fold less | dose-dependent antiviral effect | did not influence the viral replication | during the adsorption phase | 2–4 orders of magnitude | during the adsorption phase | 2–4 orders of magnitude | ≥ 20% | 20% | 44% | – | – | – | –
2 | COc1cc(NC(C)CCCN)c2ncccc2c1 (centres unmarked) [Primaquine Phosphate (PQ), Primaquine Phosphate] | 15.3 µM | 5 µg/mL | 19.3 µM | 138 µM | 35.7 µg/mL | – | dose-dependent antiviral effect | did not influence the viral replication | ≤ 5 h | – | ≤ 3 h | – | – | – | 2% | 10% | substantially lower viral load | substantially lower viral load | 18%
